Assay results taken from patent publication US4898936A, “2-deoxyuridines and riboside precursors” (priority 1985, dated 1990).
Where “and” joins values, the source holds several entries; their conditions need not be identical. Equal values may be shown once.

Assays:
Sarcoma 180 [1] = test: Comparison of activities of antitumor agents on Sarcoma 180 in mice (50% tumor regression); format: in vivo; settings: Mus musculus
Description: In comparison with the activities of other antitumor agents on Sarcoma 180 in mice, the following results were obtained: […]

Sarcoma 180 [2] = format: in vivo, mouse (male ICR/JCL-strain); settings: toxicity value (B) / antitumor activity value (A); oral, mice
Protocol: (c) Calculation of therapeutic index
By the use of the antitumor activity value (hereinafter referred to as A) and the toxicity value (hereinafter referred to as B) of each compound, which were obtained in the above items (a) and (b), respectively, therapeutic index (hereinafer referred to as C) was calculated in accordance with the following equation: […]
Pharmacological tests-(Continued) [formula]

Sarcoma 180 [3] = test: Antitumor activity in mice against Sarcoma 180 (effective dose); format: in vivo; settings: Sarcoma 180, mice; for ED50: Mus musculus, po, effective dose, administered orally
Protocol: (§1) The effective dose and the lethal dose has been determined as follows:
^+ Test animals alive at indicated dose. The dosage is administered

[4] = format: in vivo; settings: lethal dose, administered orally; + Test animals alive at indicated dose
Protocol: as §1
The dosage is administered

Sarcoma 180 [5] = settings: cited from earlier work; for Antitumor activity value (A): Administration amount of test compound, at which tumor enhancement is inhibited by 50% compared with that of control group: oral, once a day for 7 consecutive days, tumor weight on tenth day, Sarcoma 180, mice, 14400 min
Sarcoma 180 [6] = settings: from Table 1; cited from earlier work
[7] = cited from earlier work; for Toxicity value (B): Administration amount of test compound at which weight increase of test animal is inhibited by 50% compared with that of control group: oral, once a day for 7 consecutive days, mice
Hygroscopicity = format: physicochemical; settings: beta-anomer

Row | SMILES | ED50 (Sarcoma 180 [1]) [mg/kg] | Therapeutic Index (C) = (B)/(A) (Sarcoma 180 [2]) | ED50 (Sarcoma 180 [3]) [mg/kg] | antitumor activity in mice against Sarcoma 180 (in words) (Sarcoma 180 [3]) | LD10 [4] [mg/kg] | antitumor activity compared with F3 TdR and FudR (in words) (Sarcoma 180 [5]; from Table 1) | Antitumor activity value (A): Administration amount of test compound, at which tumor enhancement is inhibited by 50% compared with that of control group (Sarcoma 180 [5]) | usefulness when compared in therapeutic index (in words) (Sarcoma 180 [6]) | toxicity compared with F3 TdR and FudR (in words) ([7]; from Table 1) | Toxicity value (B): Administration amount of test compound at which weight increase of test animal is inhibited by 50% compared with that of control group [7] | hygroscopicity (Hygroscopicity)
1 | Nc1nc(=O)n([C@H]2C[C@H](O)[C@@H](CO)O2)cc1C(F)(F)F [CF3 dC, 5-Trifluoromethyl-2deoxycytidine] | 60 to 80 | – | – | – | – | – | – | – | – | – | –
2 | O=c1[nH]c(=O)n(C2CCCO2)cc1F (stereo not shown) [Ftorafur] | 120 | – | – | – | – | – | – | – | – | – | –
3 | O=c1[nH]c(=O)n([C@H]2C[C@H](OCc3ccccc3)[C@@H](CO)O2)cc1C(F)(F)F [3'-O-Benzyl-2'-Deoxy-5-Trifluoromethyluridine] | 14 | 1.88 | 14 | show antitumor activity in mice against Sarcoma 180 | 80 | far superior to them in antitumor activity | 17 mg/kg/day | especially useful | equal or superior to F3 TdR and FudR in toxicity | 32 mg/kg/day | –
4 | O=c1[nH]c(=O)n([C@H]2C[C@H](O)[C@@H](CO)O2)cc1C(F)(F)F [F3 TdR, 2'-deoxy-5-trifluoromethyluridine, reference compound] | 60 to 80 | – | 75 | – | – | – | 68 mg/kg/day and 58 mg/kg/day | – | – | 49 mg/kg/day and 40 mg/kg/day | –
5 | O=c1[nH]c(=O)n([C@H]2C[C@H](O)[C@@H](CO)O2)cc1F [FudR, 2'-deoxy-5-fluorouridine, reference compound] | – | 0.76 | – | – | – | – | 93 mg/kg/day | – | – | 71 mg/kg/day | –
6 | O=c1[nH]c(=O)n([C@H]2C[C@H](OCc3ccccc3)[C@@H](CO)O2)cc1F [3'-O-Benzyl-2'-deoxy-5-fluorouridine, 3'-O-Benzyl-2'-Deoxy-5-Fluorouridine] | – | 2.06 | – | show antitumor activity in mice against Sarcoma 180 | – | – | 17 mg/kg/day | especially useful | – | 35 mg/kg/day | not hygroscopic
